Experimental data: patent publication US11021444B2, “Antiviral compounds” (priority 2013, dated 2021)
Where two headings read alike, the source gives them in different places.

Columns and labels:
[1] = test system: Respiratory Syncytial Virus (RSV) long strain; experiment: microbe, parasite or virus in culture; type: cell-based; details: human respiratory syncytial virus, Tables A and B list compounds by EC50 band
Method in brief: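 CPE-reduction format: viability measured colorimetrically with CCK-8 (450 nm, 630 nm reference) after 3-4 h, following 5-day infection at 37 °C, 5% CO2. Cells were HEp-2; inoculum 100 TCID50/well; duplicate 9-point 1/3 series starting at 100 μM or 1 μM.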

[2] = Cytotoxicity Determination (CCK-8, without addition of virus); type: cell-based; details: human, 50% cytotoxicity concentration (CC50)
Method in brief: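 Cytotoxicity was measured by CCK-8 after 3-4 hours at 37 °C, following 5 days of uninfected exposure at 37 °C and 5% CO2. Compounds ran as duplicate 7-point 1/2 dilutions starting at 100 μM, with 1% final DMSO. HEp-2 cells had been plated at 1,500/well the day before.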

recombinant RSV complex = recombinant RSV complex (Human respiratory syncytial virus A, UniProt P28887); experiment: RSV Polymerase Inhibition Assay; type: biochemical
Method in brief: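 Inhibition measured as reduced incorporation of radiolabel into RNA products, detected by scintillation counting. Reactions: recombinant RSV complex (10 nM), RNA oligonucleotides, Tris-HCl pH 7.5, 6 mM MgCl2, inhibitor titration, 2 h at 30 °C, EDTA stop.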

RSV replicon = experiment: microbe, parasite or virus in culture; type: cell-based; details: human respiratory syncytial virus, read-out: EC50, the concentration of the drug required for reducing RSV replicon RNA by 50%
[3] = HEp-2, 120 h, read-out: 50% effective concentration (EC50), HEp-2 cells infected with RSV long strain, 5 days, CCK-8 readout
[4] = 120 h, read-out: 50% effective concentration (EC50), HEp-2 cells infected with RSV long strain, 5 days, CCK-8 readout

recombinant RSV complex, sequence (P28887 whole entry): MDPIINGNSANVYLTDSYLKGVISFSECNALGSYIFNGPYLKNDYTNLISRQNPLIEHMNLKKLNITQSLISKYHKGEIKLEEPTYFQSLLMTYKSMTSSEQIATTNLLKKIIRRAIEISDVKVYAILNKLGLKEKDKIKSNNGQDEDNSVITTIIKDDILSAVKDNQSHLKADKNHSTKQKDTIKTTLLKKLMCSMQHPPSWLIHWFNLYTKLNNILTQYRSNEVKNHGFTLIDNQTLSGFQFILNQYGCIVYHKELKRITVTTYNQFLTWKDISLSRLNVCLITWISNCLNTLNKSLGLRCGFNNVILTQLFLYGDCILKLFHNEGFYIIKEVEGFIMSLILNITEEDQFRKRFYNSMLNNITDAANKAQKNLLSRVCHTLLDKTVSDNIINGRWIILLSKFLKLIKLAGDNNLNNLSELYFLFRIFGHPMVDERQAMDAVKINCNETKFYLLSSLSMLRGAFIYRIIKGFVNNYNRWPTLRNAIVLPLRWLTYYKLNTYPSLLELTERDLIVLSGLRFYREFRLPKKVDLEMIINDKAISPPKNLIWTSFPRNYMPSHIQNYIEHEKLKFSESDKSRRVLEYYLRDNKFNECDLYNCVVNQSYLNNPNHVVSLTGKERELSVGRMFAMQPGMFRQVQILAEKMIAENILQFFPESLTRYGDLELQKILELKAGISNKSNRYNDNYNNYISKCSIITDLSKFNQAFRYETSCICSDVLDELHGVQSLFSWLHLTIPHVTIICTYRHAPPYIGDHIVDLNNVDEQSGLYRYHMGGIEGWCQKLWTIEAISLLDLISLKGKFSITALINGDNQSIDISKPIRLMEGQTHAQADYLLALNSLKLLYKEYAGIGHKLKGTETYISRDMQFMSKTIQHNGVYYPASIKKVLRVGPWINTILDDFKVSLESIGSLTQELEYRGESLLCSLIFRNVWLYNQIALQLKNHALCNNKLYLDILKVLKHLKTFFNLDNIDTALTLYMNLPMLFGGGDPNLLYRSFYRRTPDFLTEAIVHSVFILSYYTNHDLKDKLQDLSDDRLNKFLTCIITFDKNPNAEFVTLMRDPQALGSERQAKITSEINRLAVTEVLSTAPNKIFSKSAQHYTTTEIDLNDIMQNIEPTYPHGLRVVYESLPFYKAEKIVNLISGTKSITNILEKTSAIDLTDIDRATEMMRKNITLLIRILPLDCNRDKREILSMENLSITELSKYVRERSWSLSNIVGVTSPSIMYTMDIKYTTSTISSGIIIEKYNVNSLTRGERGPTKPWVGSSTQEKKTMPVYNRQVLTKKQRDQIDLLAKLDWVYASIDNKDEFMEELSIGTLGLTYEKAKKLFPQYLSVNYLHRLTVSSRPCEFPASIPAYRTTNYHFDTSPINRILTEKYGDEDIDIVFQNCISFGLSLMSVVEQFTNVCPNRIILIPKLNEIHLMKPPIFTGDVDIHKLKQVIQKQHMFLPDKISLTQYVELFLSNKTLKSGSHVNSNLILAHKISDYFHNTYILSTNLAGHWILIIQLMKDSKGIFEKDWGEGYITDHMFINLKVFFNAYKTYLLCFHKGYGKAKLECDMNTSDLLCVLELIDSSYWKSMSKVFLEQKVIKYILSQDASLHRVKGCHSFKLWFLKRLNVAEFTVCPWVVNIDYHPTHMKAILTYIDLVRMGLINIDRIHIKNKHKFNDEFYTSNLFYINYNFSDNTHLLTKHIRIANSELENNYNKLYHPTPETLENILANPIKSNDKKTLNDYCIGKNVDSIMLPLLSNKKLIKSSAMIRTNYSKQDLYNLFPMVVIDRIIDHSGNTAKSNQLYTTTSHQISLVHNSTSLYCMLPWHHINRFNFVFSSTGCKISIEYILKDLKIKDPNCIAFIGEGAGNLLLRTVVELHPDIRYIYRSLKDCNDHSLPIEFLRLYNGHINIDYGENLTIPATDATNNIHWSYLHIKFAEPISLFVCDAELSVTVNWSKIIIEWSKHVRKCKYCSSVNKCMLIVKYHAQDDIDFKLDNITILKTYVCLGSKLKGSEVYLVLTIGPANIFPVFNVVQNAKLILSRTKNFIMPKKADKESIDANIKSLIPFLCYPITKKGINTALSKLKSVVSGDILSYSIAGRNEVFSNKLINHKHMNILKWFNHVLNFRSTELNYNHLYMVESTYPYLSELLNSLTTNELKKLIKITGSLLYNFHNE
recombinant RSV complex, sequence (P03421 whole entry, further chain): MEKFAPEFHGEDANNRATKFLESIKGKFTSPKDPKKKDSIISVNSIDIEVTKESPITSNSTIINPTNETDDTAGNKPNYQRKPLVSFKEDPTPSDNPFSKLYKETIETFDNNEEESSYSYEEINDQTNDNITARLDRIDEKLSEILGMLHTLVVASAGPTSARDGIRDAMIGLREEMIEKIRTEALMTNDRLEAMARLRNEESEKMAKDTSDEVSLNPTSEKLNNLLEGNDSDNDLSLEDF

Row | SMILES | EC50 [1, 3] | CC50 at 5 days [2] | IC50 (recombinant RSV complex) | EC50 (RSV replicon) | EC50 [1, 4]
1 | COc1cc(C(=O)NCC(O)(Cn2ccnc2)c2ccc(OC)c(-c3ccc(F)c(Cl)c3)n2)ccc1OCCO (stereo not shown) [Compound 191] | < 1 µM | > 100 µM | < 1 µM | < 1 µM | –
2 | COc1cc(C(=O)NCC(O)(Cn2ccnn2)c2ccc(OC)c(-c3ccc(F)c(Cl)c3)n2)ccc1OCCO (stereo not shown) [Compound 192] | < 1 µM | > 100 µM | < 1 µM | < 1 µM | –
3 | COc1cc(C(=O)NCC(O)(Cn2nccn2)c2ccc(OC)c(-c3ccc(F)c(Cl)c3)n2)ccc1OCCO (stereo not shown) [Compound 193] | < 1 µM | 10 to 100 µM | < 1 µM | < 1 µM | –
4 | COc1cc(C(=O)NCC(O)(Cn2cncn2)c2ccc(OC)c(-c3ccc(F)c(Cl)c3)n2)ccc1OCCO (stereo not shown) [Compound 194] | < 1 µM | > 100 µM | < 1 µM | < 1 µM | –
5 | COc1cc(C(=O)NCC(O)(CNC(C)=O)c2ccc(OC)c(-c3ccc(F)c(Cl)c3)n2)ccc1OCCO (stereo not shown) [Compound 195] | < 1 µM | > 100 µM | < 1 µM | < 1 µM | –
6 | COc1cc(C(=O)NCC(O)(c2cc3c(c(-c4ccc(F)c(Cl)c4)n2)OCC3(C)C)C(F)(F)F)ccc1OC1CCNC1=O (stereo not shown) [Compound 200] | – | 10 to 100 µM | < 1 µM | < 1 µM | < 1 µM
7 | COc1cc(C(=O)NCC(O)(c2cc3c(c(-c4ccc(F)c(Cl)c4)n2)OCC3(C)C)C(F)(F)F)cc2cccnc12 (stereo not shown) [Compound 208] | < 1 µM | 10 to 100 µM | < 1 µM | < 1 µM | –
8 | COc1cc(C(=O)NCC(O)(c2cc3c(c(-c4ccc(F)c(Cl)c4)n2)OCC3(C)C)C(F)(F)F)ccc1OC1CC1 (stereo not shown) [Compound 209] | < 1 µM | > 100 µM | < 1 µM | < 1 µM | –
9 | COc1cc(C(=O)NCC(O)(c2cc3c(c(-c4ccc(F)c(Cl)c4)n2)OCC3(C)C)C(F)(F)F)ccc1OCC(C)O (stereo not shown) [Compound 211] | < 1 µM | 10 to 100 µM | < 1 µM | < 1 µM | –
10 | COc1cc(C(=O)NCC(O)(Cn2cccn2)c2cc3c(c(-c4ccc(F)c(Cl)c4)n2)OCC3(C)C)ccc1OC1CCNC1=O (stereo not shown) [Compound 218] | < 1 µM | 10 to 100 µM | < 1 µM | < 1 µM | –
11 | COc1cc(C(=O)NCC(=O)c2cc3c(c(-c4ccc(F)c(Cl)c4)n2)OCC3(C)C)cc2cccnc12 [Compound 220] | – | > 100 µM | < 1 µM | 1 to 50 µM | < 1 µM
12 | COc1cc(C(=O)NCC(O)(c2cc3c(c(-c4ccc(F)c(Cl)c4)n2)OCC3(C)C)C2CC2)ccc1OC1CCNC1=O (stereo not shown) [Compound 223] | < 1 µM | 10 to 100 µM | < 1 µM | < 1 µM | –
13 | COc1cc(C(=O)NCC(O)(c2cc3c(c(-c4ccc(F)c(Cl)c4)n2)OCC3(C)C)C2CC2)cc2cccnc12 (stereo not shown) [Compound 224] | < 1 µM | 10 to 100 µM | < 1 µM | < 1 µM | –
14 | COc1cc(C(=O)NCC(O)(Cn2ccnc2)c2cc3c(c(-c4ccc(F)c(Cl)c4)n2)OCC3(C)C)cc2cccnc12 (stereo not shown) [Compound 226] | < 1 µM | 10 to 100 µM | < 1 µM | < 1 µM | –
15 | COc1cc(C(=O)NCC(C)(O)c2cc3c(c(-c4c[nH]c5c(F)cccc45)n2)OCC3(C)C)ccc1OCCF (stereo not shown) [Compound 228] | < 1 µM | > 100 µM | < 1 µM | < 1 µM | –
16 | COc1ccc(C(O)(CNC(=O)c2ccc(OC[C@@H](C)O)c(Cl)c2)C(F)(F)F)nc1-c1ccc(F)c(Cl)c1 (stereo partly shown) [Compound 232] | < 1 µM | 10 to 100 µM | < 1 µM | < 1 µM | –
17 | COc1ccc(C(O)(CNC(=O)c2ccc(OCC(N)=O)c(Cl)c2)C(F)(F)F)nc1-c1ccc(F)c(Cl)c1 (stereo not shown) [Compound 237] | < 1 µM | 10 to 100 µM | < 1 µM | < 1 µM | –
18 | COc1cc(C(=O)NCC(O)(c2ccc(OC)c(-c3ccc(F)c(Cl)c3)n2)C(F)(F)F)ccc1OCC(N)=O (stereo not shown) [Compound 240] | – | 10 to 100 µM | < 1 µM | < 1 µM | < 1 µM
19 | COc1cc(C(=O)NCC(O)(c2ccc(OC)c(-c3ccc(F)c(Cl)c3)n2)C2CC2)ccc1OCCO (stereo not shown) [Compound 241] | < 1 µM | 10 to 100 µM | < 1 µM | < 1 µM | –
